{
  "source": "patent US20180327367A1",
  "about": "“MACROCYCLIC BROAD SPECTRUM ANTIBIOTICS” (priority 2015, published 2018)",
  "key": {"[1]": {"test_system": "Methicillin Resistant Staphylococcus aureus strain USA 300, NRS384", "assay": "Minimum inhibitory concentration, broth micro-dilution (CLSI), S. aureus", "format": "cell-based", "conditions": "Staphylococcus aureus, MRSA / NRS 384 / USA300, 22 h, 35° C., 22 hours", "how_it_was_run": "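Colonies grown 20 hours at 35° C were suspended in cation-adjusted Mueller Hinton Broth with 0.002% Tween-80. Cells were then added to 2-fold compound dilutions starting at 4 or 0.5 μg/mL, at OD600 0.0005.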"}, "[2]": {"target": "T1, SpsB (Staphylococcus aureus signal peptidase) (Staphylococcus aureus, UniProt P0A070)", "T1 construct": "This assay uses a suspension of Staphylococcus aureus cells as a source of SpsB instead of recombinant SpsB protein; endogenous in cells; host or cells: S. aureus, USA300 background, overexpressing SpsB (whole-cell suspension from frozen pellets)", "T1 sequence (P0A070 whole entry)": "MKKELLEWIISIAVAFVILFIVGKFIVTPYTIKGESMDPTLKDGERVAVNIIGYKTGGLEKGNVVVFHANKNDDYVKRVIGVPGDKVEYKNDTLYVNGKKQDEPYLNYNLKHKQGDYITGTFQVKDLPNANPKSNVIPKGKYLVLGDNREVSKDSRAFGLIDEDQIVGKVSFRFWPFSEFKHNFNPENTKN", "assay": "cell-based", "format": "biochemical", "conditions": "SpsB IC50, whole-cell S. aureus (USA300 background, overexpressing SpsB) as SpsB source; fluorogenic peptide substrate, kinetic read 30 min", "how_it_was_run": "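Cleavage of an internally quenched (Dabcyl)βAla-KPAKAAE(Edans) peptide, added as 20 μM solution mixed 1:1 with cells, was followed for 30 min at 340/490 nm. SpsB came from a suspension of SpsB-overexpressing USA300 S. aureus in Tween-80-containing PBS buffer. Slopes plotted against 3-fold compound dilutions gave IC50.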"}, "[3]": {"test_system": "Escherichia coli ATCC 25922", "assay": "Minimum inhibitory concentration, broth micro-dilution (CLSI), E. coli", "format": "cell-based", "conditions": "Escherichia coli, ATCC25922, 22 h, 35° C., 22 hours"}, "[4]": {"test_system": "Escherichia coli MC4100 harboring the IMP4213 (E. coli IMP)", "assay": "microbe, parasite or virus in culture", "format": "cell-based", "conditions": "Escherichia coli, 22 h, read-out: MIC (μg/mL) E. coli IMP, E. coli MC4100 IMP4213, increased outer-membrane permeability; 35° C., 22 hours", "how_it_was_run": "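Ten 2-fold dilutions, from 4 μg/mL or from 0.5 μg/mL depending on protocol, are challenged with bacteria at OD600 0.0005 in Tween-80-supplemented cation-adjusted Mueller Hinton Broth. Plates incubate 22 hours at 35° C per CLSI. The E. coli IMP4213 strain has increased outer-membrane permeability.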"}, "[5]": {"conditions": "read-out: MIC (μg/mL) S. aureus, MRSA USA 300 NRS384"}, "[6]": {"conditions": "read-out: MIC (μg/mL) E. coli, E. coli ATCC 25922"}, "[7]": {"conditions": "MRSA USA 300 NRS384, read-out: MIC (μg/mL) S. aureus"}, "[8]": {"conditions": "E. coli ATCC 25922, read-out: MIC (μg/mL) E. coli"}},
  "note": "Read-outs that look alike come from different tables or passages of the source.",
  "data": [
    {"smiles": "C[C@@H]1NC(=O)[C@@H](N(C)C(=O)[C@H](CO)NC(=O)c2cnc(-c3ccc(Cl)cc3)nc2)c2ccc(OCCN)c(c2)-c2cc(ccc2OCCN)C[C@@H](C(=O)NCC#N)NC1=O", "note": "[Compound 234]", "values": [
      {"measurement": "MIC", "setting": "[1]; [5]", "result": 1, "unit": "µg/mL"},
      {"measurement": "IC50", "setting": "[2]", "result": 3.9, "unit": "nM"},
      {"measurement": "MIC", "setting": "[3]; [6]", "result": 32, "unit": "µg/mL"},
      {"measurement": "MIC", "setting": "[4]", "result": 0.25, "unit": "µg/mL"}
    ]},
    {"smiles": "CCCCCCCCc1ccc(C(=O)N[C@@H](CO)C(=O)N(C)[C@@H]2C(=O)N[C@@H](C)C(=O)N[C@H](C(=O)NCC#N)Cc3ccc(OCCN)c(c3)-c3cc2ccc3OCCN)c(C)c1", "note": "[Compound 235]", "values": [
      {"measurement": "MIC", "setting": "[1]; [7]", "result": 0.094, "unit": "µg/mL"},
      {"measurement": "IC50", "setting": "[2]", "result": 0.98, "unit": "nM"},
      {"measurement": "MIC", "setting": "[3]; [8]", "result": 1, "unit": "µg/mL"},
      {"measurement": "MIC", "setting": "[4]", "result": 0.012, "unit": "µg/mL"}
    ]},
    {"smiles": "CCCCCCCCCC(=O)N[C@@H](CC(N)=O)C(=O)N(C)[C@@H]1C(=O)N[C@@H](C)C(=O)N[C@H](C(=O)NCC#N)Cc2ccc(OCCN)c(c2)-c2cc1ccc2OCCN", "note": "[Compound 236]", "values": [
      {"measurement": "MIC", "setting": "[1]; [7]", "result": 1, "unit": "µg/mL"},
      {"measurement": "IC50", "setting": "[2]", "result": 1.5, "unit": "nM"},
      {"measurement": "MIC", "setting": "[3]; [8]", "result": "> 64", "unit": "µg/mL"},
      {"measurement": "MIC", "setting": "[4]", "result": 1.5, "unit": "µg/mL"}
    ]},
    {"smiles": "CCCCCCc1ccc(C(=O)N[C@@H](CC(N)=O)C(=O)N(C)[C@@H]2C(=O)N[C@@H](C)C(=O)N[C@H](C(=O)NCC#N)Cc3ccc(OCCN)c(c3)-c3cc2ccc3OCCN)c(C)c1", "note": "[Compound 237]", "values": [
      {"measurement": "MIC", "setting": "[1]; [7]", "result": 0.13, "unit": "µg/mL"},
      {"measurement": "IC50", "setting": "[2]", "result": 1.1, "unit": "nM"},
      {"measurement": "MIC", "setting": "[3]; [8]", "result": 16, "unit": "µg/mL"},
      {"measurement": "MIC", "setting": "[4]", "result": 0.094, "unit": "µg/mL"}
    ]},
    {"smiles": "CCCCCCCCc1ccc(C(=O)N[C@@H](CC(N)=O)C(=O)N(C)[C@@H]2C(=O)N[C@@H](C)C(=O)N[C@H](C(=O)NCC#N)Cc3ccc(OCCN)c(c3)-c3cc2ccc3OCCN)c(C)c1", "note": "[Compound 239]", "values": [
      {"measurement": "MIC", "setting": "[1]; [7]", "result": 0.047, "unit": "µg/mL"},
      {"measurement": "IC50", "setting": "[2]", "result": 0.74, "unit": "nM"},
      {"measurement": "MIC", "setting": "[3]; [8]", "result": 3, "unit": "µg/mL"},
      {"measurement": "MIC", "setting": "[4]", "result": 0.094, "unit": "µg/mL"}
    ]},
    {"smiles": "CCCCCCCCCCCC(=O)N[C@@H](C)C(=O)N(C)[C@@H]1C(=O)N[C@@H](C)C(=O)N[C@H](C(=O)NCC#N)Cc2ccc(OCCN)c(c2)-c2cc1ccc2OCCN", "note": "[Compound 241]", "values": [
      {"measurement": "MIC", "setting": "[1]; [7]", "result": 0.13, "unit": "µg/mL"},
      {"measurement": "IC50", "setting": "[2]", "result": 1.4, "unit": "nM"},
      {"measurement": "MIC", "setting": "[3]; [8]", "result": 6, "unit": "µg/mL"},
      {"measurement": "MIC", "setting": "[4]", "result": 0.063, "unit": "µg/mL"}
    ]},
    {"smiles": "CCCCCCCCc1ccc(C(=O)N[C@@H](C)C(=O)N(C)[C@@H]2C(=O)N[C@@H](C)C(=O)N[C@H](C(=O)NCC#N)Cc3ccc(OCCN)c(c3)-c3cc2ccc3OCCN)c(C)c1", "note": "[Compound 243]", "values": [
      {"measurement": "MIC", "setting": "[1]; [7]", "result": 0.094, "unit": "µg/mL"},
      {"measurement": "IC50", "setting": "[2]", "result": 1.3, "unit": "nM"},
      {"measurement": "MIC", "setting": "[3]; [8]", "result": 1.5, "unit": "µg/mL"},
      {"measurement": "MIC", "setting": "[4]", "result": 0.031, "unit": "µg/mL"}
    ]},
    {"smiles": "CCCCCCCCCCCC(=O)N[C@@H](CCC(N)=O)C(=O)N(C)[C@@H]1C(=O)N[C@@H](C)C(=O)N[C@H](C(=O)NCC#N)Cc2ccc(OCCN)c(c2)-c2cc1ccc2OCCN", "note": "[Compound 244]", "values": [
      {"measurement": "MIC", "setting": "[1]; [7]", "result": 0.13, "unit": "µg/mL"},
      {"measurement": "IC50", "setting": "[2]", "result": 1, "unit": "nM"},
      {"measurement": "MIC", "setting": "[3]; [8]", "result": 48, "unit": "µg/mL"},
      {"measurement": "MIC", "setting": "[4]", "result": 0.19, "unit": "µg/mL"}
    ]},
    {"smiles": "CCCCc1ccc(C(=O)N[C@@H](CCC(N)=O)C(=O)N(C)[C@@H]2C(=O)N[C@@H](C)C(=O)N[C@H](C(=O)NCC#N)Cc3ccc(OCCN)c(c3)-c3cc2ccc3OCCN)c(C)c1", "note": "[Compound 245]", "values": [
      {"measurement": "MIC", "setting": "[1]; [7]", "result": 1, "unit": "µg/mL"},
      {"measurement": "IC50", "setting": "[2]", "result": 6.3, "unit": "nM"},
      {"measurement": "MIC", "setting": "[3]; [8]", "result": "> 64", "unit": "µg/mL"},
      {"measurement": "MIC", "setting": "[4]", "result": 0.38, "unit": "µg/mL"}
    ]},
    {"smiles": "CCCCCCc1ccc(C(=O)N[C@@H](CCC(N)=O)C(=O)N(C)[C@@H]2C(=O)N[C@@H](C)C(=O)N[C@H](C(=O)NCC#N)Cc3ccc(OCCN)c(c3)-c3cc2ccc3OCCN)c(C)c1", "note": "[Compound 246]", "values": [
      {"measurement": "MIC", "setting": "[1]; [7]", "result": 0.13, "unit": "µg/mL"},
      {"measurement": "IC50", "setting": "[2]", "result": 1.1, "unit": "nM"},
      {"measurement": "MIC", "setting": "[3]; [8]", "result": 16, "unit": "µg/mL"},
      {"measurement": "MIC", "setting": "[4]", "result": 0.063, "unit": "µg/mL"}
    ]},
    {"smiles": "CCCCc1ccc(-c2ccc(C(=O)N[C@@H](CO)C(=O)N(C)[C@@H]3C(=O)N[C@@H](C)C(=O)N[C@H](C(=O)NCC#N)Cc4ccc(OCCN)c(c4)-c4cc3ccc4OCCN)cc2)cc1", "note": "[Compound 249]", "values": [
      {"measurement": "MIC", "setting": "[1]; [7]", "result": 0.13, "unit": "µg/mL"},
      {"measurement": "IC50", "setting": "[2]", "result": 1.2, "unit": "nM"},
      {"measurement": "MIC", "setting": "[3]; [8]", "result": 0.69, "unit": "µg/mL"},
      {"measurement": "MIC", "setting": "[4]", "result": 0.012, "unit": "µg/mL"}
    ]},
    {"smiles": "C[C@@H]1NC(=O)[C@@H](N(C)C(=O)[C@H](CO)NC(=O)c2ccc(-c3ccc(Cl)cc3)nc2)c2ccc(OCCN)c(c2)-c2cc(ccc2OCCN)C[C@@H](C(=O)NCC#N)NC1=O", "note": "[Compound 250]", "values": [
      {"measurement": "MIC", "setting": "[1]; [5]", "result": 1, "unit": "µg/mL"},
      {"measurement": "IC50", "setting": "[2]", "result": 7, "unit": "nM"},
      {"measurement": "MIC", "setting": "[3]; [6]", "result": 64, "unit": "µg/mL"},
      {"measurement": "MIC", "setting": "[4]", "result": 0.25, "unit": "µg/mL"}
    ]},
    {"smiles": "CCCCCCCCCCCC(=O)N[C@@H](CCC(=O)O)C(=O)N(C)[C@@H]1C(=O)N[C@@H](C)C(=O)N[C@H](C(=O)NCC#N)Cc2ccc(OCCN)c(c2)-c2cc1ccc2OCCN", "note": "[Compound 253]", "values": [
      {"measurement": "MIC", "setting": "[1]; [7]", "result": 2, "unit": "µg/mL"},
      {"measurement": "IC50", "setting": "[2]", "result": 12, "unit": "nM"},
      {"measurement": "MIC", "setting": "[3]; [8]", "result": "> 64", "unit": "µg/mL"},
      {"measurement": "MIC", "setting": "[4]", "result": 2, "unit": "µg/mL"}
    ]}
  ]
}
